Data: PMC11078216, “Discovery of potent and selective activity-based probes (ABPs) for the deubiquitinating enzyme USP30” (RSC Chemical Biology, 2024)

Columns and labels:
Test in all cases: ABPP chemical proteomics (LC-MS/MS) in HEK293T cells
Assay type in all cases: cell-based
DESI2 = molecular target: T1, DESI2 (Homo sapiens, UniProt Q9BSY9)
T1 construct: endogenous in cells; host or cells: HEK293T
Experimental: (§1) To explore the selectivity of IMP-2587 and IMP-2586 across the whole proteome, we performed quantitative activity-based protein profiling (ABPP) in HEK293T cells following treatment with IMP-2587 or IMP-2586 (Fig. 3a). After ABP incubation, cells were lysed, and probe-labelled proteins were ligated to biotinylated capture reagents.[27] […] USP30 was outcompeted by corresponding parent inhibitors for each ABP (Fig. 5b and d and Tables S3 and S5, ESI ^†), confirming the high potency and rapid engagement of IMP-2587 and IMP-2586 in cells. […] DESI1 and DESI2 are small ubiquitin-related modifier (SUMO) proteases,[3,29–32] and IMP-2587 and IMP-2586 may offer a starting point for future development of DESI ABPs. […]
(§2) d) Live cell probe incubation, lysate click chemistry and precipitation 6-well HEK293T cells were incubated with media containing compounds ABP 2 and ABP 4 at indicated concentrations for 1 h at 37 °C. The cells were washed with PBS and lysed with lysis buffer (50 μL (1% (v/v) Triton X-100, 0.1% (w/v) sodium dodecyl sulfate (SDS), EDTA-free complete protease inhibitor cocktail (1×, Roche) in PBS on ice for 10 min. The lysates were scraped and transferred to corresponding Lo-Bind Eppendorfs. Each lysate was sonicated for 1 minute, and the samples centrifuges at 5,000 x g at 4 °C for 5 minutes to pellet insoluble cellular debris. The supernatant was collected, and protein concentration was determined using the DC Protein Assay (Bio-Rad) as per manufacturer’s instructions, and normalised to lowest concentrated sample (e.g. 1 mg/mL, using lysis buffer). The following “click mixture” was prepared separately, preparing 6 μL for every 100 μL of […]
(§3) Capture reagent (AzRB/AzT for ABP 2, YnT/YnB for ABP 4 10 mM in DMSO, 1 vol; final concentration […]
(§4) CuSO4 (50 mM in water, 2 vol; final concentration in reaction 1 mM)
(§5) TCEP (50 mM in water, 2 vol; final concentration in reaction 1 mM)
(§6) TBTA (10 mM in DMSO, 1 vol; final concentration in reaction 100 µM)
(§7) The click mixture was vortexed and incubated at room temperature for 2 min before 6 μL of the mixture was added to every 100 μL of lysate. The reaction mixtures were shaken at room temperature for 1 h before being quenched with EDTA (500 mM in H2O) to a final concentration of 10 mM.
(§8) Proteins were precipitated by adding H2O (1 vol), MeOH (2 vol) and CHCl3 (0.5 vol), vortexing briefly then centrifuging at 17,000 × g for 5 min. The top H2O/MeOH layer was discarded and the middle layer of protein pellet and lower CHCl3 layer retained. The suspension was washed with MeOH (300 μL), and sonicated to break up the pellet. The proteins were pelleted by centrifugation at 10,000–17000 × g for 5–10 min or until a compact pellet was formed. The protein pellet was washed once more with MeOH (1 mL). The pellet was resuspended by sonicating and completely dissolving in 1% (w/v) SDS in PBS (to 5 mg/mL protein) before being made up to 1 mg/mL protein with PBS. […]
(§9) f) Neutravidin biotin enrichment (Affinity pull-down)
(§10) Click chemistry and precipitation steps were carried out as described in section 3.2.d, on at least 400ug of protein per sample. The pellet was resuspended by sonicating and completely dissolving in 1% (w/v) SDS in HEPES 50 mM pH 8.0, before being made up to 1 mg/mL protein with HEPES 50 mM pH 8.0 to […]
(§11) achieve a final concentration of 0.2% SDS. 20uL of each samples was collected as TL (Total lysate) samples. Pull down of biotinylated proteins was achieved by incubating samples with pre-equilibrated (3x 1 mL washes with 0.2% (w/v) SDS in HEPES 50 mM pH 8 buffer) Pierce™ NeutrAvidin™ Agarose beads for 3 hours at room temperature. NeutrAvidin™ Agarose beads were used in ratio of 1 μL bead resin per 10ug of protein sample. The beads were subsequently washed by moderate shaking for 10 seconds then briefly pelleting by table-top centrifuge then vacuum aspirating the supernatant with fine-end pipette tips (to not disturb the agarose) after collecting 20 µL supernatant as SN (supernatant […]
(§12) ) samples. […]

ALDH1B1 = molecular target: T2, ALDH1B1 (Homo sapiens, UniProt P30837)
T2 construct: endogenous in cells; host or cells: HEK293T
T2 sequence (P30837 18-517): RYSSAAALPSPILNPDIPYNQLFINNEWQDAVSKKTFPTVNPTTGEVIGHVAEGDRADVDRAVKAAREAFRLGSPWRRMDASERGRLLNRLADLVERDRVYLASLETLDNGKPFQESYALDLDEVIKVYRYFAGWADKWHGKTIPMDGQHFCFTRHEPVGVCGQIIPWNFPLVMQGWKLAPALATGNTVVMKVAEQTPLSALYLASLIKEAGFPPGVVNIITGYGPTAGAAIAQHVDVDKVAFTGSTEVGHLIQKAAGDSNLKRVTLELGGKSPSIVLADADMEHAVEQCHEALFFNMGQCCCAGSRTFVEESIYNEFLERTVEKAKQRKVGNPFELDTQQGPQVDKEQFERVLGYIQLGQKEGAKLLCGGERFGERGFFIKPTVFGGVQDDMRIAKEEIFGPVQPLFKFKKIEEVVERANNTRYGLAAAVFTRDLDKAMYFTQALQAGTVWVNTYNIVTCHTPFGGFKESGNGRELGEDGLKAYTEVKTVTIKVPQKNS
Experimental: as §1, §2, §3, §4, §5, §6, §7, §8, §9, §10, §11, §12

ISOC2 = molecular target: T3, ISOC2 (Homo sapiens, UniProt Q96AB3)
T3 construct: endogenous in cells; host or cells: HEK293T
T3 sequence (Q96AB3 1-205): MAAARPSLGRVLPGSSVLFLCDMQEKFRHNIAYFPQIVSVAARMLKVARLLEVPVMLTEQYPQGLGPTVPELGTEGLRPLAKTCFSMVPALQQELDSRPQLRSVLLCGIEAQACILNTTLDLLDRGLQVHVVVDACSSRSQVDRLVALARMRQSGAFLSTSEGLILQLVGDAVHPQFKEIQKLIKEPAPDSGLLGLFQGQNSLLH
Experimental: as §1, §2, §3, §4, §5, §6, §7, §8, §9, §10, §11, §12

ISOC1 = molecular target: T4, ISOC1 (Homo sapiens, UniProt Q96CN7)
T4 construct: endogenous in cells; host or cells: HEK293T
T4 sequence (Q96CN7 1-298): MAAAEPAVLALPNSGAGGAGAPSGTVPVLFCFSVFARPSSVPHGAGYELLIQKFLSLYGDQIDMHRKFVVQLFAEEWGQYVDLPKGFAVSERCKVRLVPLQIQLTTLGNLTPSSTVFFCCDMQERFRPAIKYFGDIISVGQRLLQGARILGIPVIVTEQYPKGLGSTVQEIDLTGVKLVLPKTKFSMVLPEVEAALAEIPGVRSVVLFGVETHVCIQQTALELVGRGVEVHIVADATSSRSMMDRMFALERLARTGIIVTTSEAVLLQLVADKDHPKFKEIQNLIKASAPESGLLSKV
Experimental: as §1, §2, §3, §4, §5, §6, §7, §8, §9, §10, §11, §12

[1] = compound 1 out-competition with IMP-2587 labelling, HEK293T (Table S3, Fig.5b)
[2] = IMP-2587 labelling vs DMSO, 30 nM, 10 min, HEK293T (Table S2, Fig.5a)
[3] = IMP-2586 labelling vs DMSO, 30 nM, 10 min, HEK293T (Table S4, Fig.5c)
[4] = compound 3 out-competition with IMP-2586 labelling, HEK293T (Table S5, Fig.5d)

T1 sequence (Q9BSY9 whole entry): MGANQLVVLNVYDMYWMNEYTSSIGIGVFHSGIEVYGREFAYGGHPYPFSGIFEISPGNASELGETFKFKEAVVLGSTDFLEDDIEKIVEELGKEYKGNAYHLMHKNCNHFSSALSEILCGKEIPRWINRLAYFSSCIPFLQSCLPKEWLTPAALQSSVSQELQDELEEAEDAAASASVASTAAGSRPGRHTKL

N#CN1CC[C@H](CC(=O)Nc2cc(-c3cccc(Cl)c3)no2)C1 [compound 1, reference compound]
Difference (log2 fold change of enrichment) (DESI2; [1]): -1.75 | Difference (log2 fold change of enrichment) (ALDH1B1; [1]): -3.81 | Difference (log2 fold change of enrichment) (ISOC2; [1]): -3.53 | Difference (log2 fold change of enrichment) (ISOC1; [1]): -3.50

C#Cc1cccc(-c2cc(NC(=O)CC3CCN(C#N)C3)on2)c1 (stereo not shown) [IMP-2587]
Difference (log2 fold change of enrichment) (DESI2; [2]): 2.02 | Difference (log2 fold change of enrichment) (ALDH1B1; [2]): 3.53 | Difference (log2 fold change of enrichment) (ISOC2; [2]): 3.87 | Difference (log2 fold change of enrichment) (ISOC1; [2]): 4.06

N#CN1CC[C@@H](NC(=O)c2cc(-c3ccccc3Oc3ccc(N=[N+]=[N-])cc3)n[nH]2)C1 [IMP-2586]
Difference (log2 fold change of enrichment) (DESI2; [3]): 3.40 | Difference (log2 fold change of enrichment) (ALDH1B1; [3]): 2.25 | Difference (log2 fold change of enrichment) (ISOC2; [3]): 3.62 | Difference (log2 fold change of enrichment) (ISOC1; [3]): 1.71

N#CN1CC[C@@H](NC(=O)c2cc(-c3ccccc3Oc3ccccc3)n[nH]2)C1 [compound 3, reference compound]
Difference (log2 fold change of enrichment) (DESI2; [4]): -3.13 | Difference (log2 fold change of enrichment) (ALDH1B1; [4]): -1.78 | Difference (log2 fold change of enrichment) (ISOC2; [4]): -3.08 | Difference (log2 fold change of enrichment) (ISOC1; [4]): -1.80
